Results from patent US20230313318A1, “MICR[…] METHOD OF USE THEREOF” (priority 2022, published 2023).
Values joined by “and” are separate entries in the source; they are usually repeats but may differ in a detail not shown here. Equal entries are not always repeated.

System: D. immitis JYD-34 (macrocyclic lactone resistant isolate)
Design: species or system Dirofilaria immitis
Conditions: in vivo

Milbemycin oxime [MBO]
JYD-34 heartworms among recovered worms, all seven dogs in Group 4: 100% | Number of JYD-34 Worms: 18 and 15 and 21 and 22 and 14 and 20 | Percentage of JYD-34 Worms (po): 100%
